Tests used:
[1] = molecular target: Serine/threonine-protein kinase TAO3 (Homo sapiens) (UniProt Q9H2K8); settings: Compound concentration 1000.0 nM
[2] = molecular target: Ribosomal protein S6 kinase alpha-3 (Homo sapiens) (UniProt P51812); settings: Compound concentration 1000.0 nM
[3] = molecular target: Insulin receptor (Homo sapiens) (UniProt P06213); settings: Compound concentration 1000.0 nM
[4] = molecular target: Mitogen-activated protein kinase kinase kinase 9 (Homo sapiens) (UniProt P80192); settings: Compound concentration 1000.0 nM
Chain of Mitogen-activated protein kinase kinase kinase 9 (Homo sapiens) (P80192 whole entry, looked up): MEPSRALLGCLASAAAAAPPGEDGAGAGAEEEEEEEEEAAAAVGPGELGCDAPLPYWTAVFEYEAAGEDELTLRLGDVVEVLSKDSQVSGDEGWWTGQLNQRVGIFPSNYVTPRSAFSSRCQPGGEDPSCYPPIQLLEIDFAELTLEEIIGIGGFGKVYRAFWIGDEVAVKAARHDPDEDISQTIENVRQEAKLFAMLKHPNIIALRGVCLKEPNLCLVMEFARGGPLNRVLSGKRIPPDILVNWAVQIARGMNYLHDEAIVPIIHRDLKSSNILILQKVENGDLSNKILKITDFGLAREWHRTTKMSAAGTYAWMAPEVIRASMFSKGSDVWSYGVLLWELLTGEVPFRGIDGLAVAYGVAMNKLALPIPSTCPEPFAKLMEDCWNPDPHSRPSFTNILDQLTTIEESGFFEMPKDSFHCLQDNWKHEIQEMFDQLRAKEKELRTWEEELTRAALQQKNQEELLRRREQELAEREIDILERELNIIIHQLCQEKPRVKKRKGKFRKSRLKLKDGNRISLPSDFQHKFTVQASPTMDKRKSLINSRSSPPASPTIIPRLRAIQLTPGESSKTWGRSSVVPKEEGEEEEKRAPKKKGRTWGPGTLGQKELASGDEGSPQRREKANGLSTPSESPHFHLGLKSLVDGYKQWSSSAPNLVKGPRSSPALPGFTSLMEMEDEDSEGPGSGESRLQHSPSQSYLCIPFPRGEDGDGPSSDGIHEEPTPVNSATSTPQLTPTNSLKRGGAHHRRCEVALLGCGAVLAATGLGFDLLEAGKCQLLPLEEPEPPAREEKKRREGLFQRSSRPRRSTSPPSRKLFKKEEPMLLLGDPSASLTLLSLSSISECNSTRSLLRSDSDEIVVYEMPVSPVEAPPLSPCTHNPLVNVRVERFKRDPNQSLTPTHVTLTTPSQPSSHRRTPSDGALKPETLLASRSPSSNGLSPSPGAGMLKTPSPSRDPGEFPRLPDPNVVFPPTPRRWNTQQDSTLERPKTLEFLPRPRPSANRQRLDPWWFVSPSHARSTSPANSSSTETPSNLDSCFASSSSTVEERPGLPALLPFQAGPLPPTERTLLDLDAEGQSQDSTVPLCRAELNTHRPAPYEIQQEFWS

[5] = molecular target: Serine/threonine-protein kinase NLK (Homo sapiens) (UniProt Q9UBE8); settings: Compound concentration 1000.0 nM
[6] = molecular target: Cyclin-dependent kinase 13 (Homo sapiens) (UniProt Q14004); settings: Compound concentration 1000.0 nM
[7] = molecular target: Serine/threonine-protein kinase 16 (Homo sapiens) (UniProt O75716); settings: Compound concentration 1000.0 nM
Chain of Serine/threonine-protein kinase 16 (Homo sapiens) (O75716 whole entry): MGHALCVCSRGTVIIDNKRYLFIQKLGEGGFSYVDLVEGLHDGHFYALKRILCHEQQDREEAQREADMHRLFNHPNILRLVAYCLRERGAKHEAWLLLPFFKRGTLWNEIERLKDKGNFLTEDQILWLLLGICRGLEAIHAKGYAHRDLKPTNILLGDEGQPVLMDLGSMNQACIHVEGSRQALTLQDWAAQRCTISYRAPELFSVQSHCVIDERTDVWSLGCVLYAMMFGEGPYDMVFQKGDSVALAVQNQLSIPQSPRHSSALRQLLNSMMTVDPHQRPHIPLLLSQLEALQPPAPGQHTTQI

[8] = molecular target: Serine/threonine-protein kinase D3 (Homo sapiens) (UniProt O94806); settings: Compound concentration 1000.0 nM
[9] = tested on: Tyrosine-protein kinase ABL1 (Homo sapiens), P00519 [Y253F]; settings: Compound concentration 1000.0 nM
[10] = tested on: Receptor-type tyrosine-protein kinase FLT3 (Homo sapiens), P36888 [D835V]; settings: Compound concentration 1000.0 nM
[11] = molecular target: D(1B) dopamine receptor (Homo sapiens) (UniProt P21918); settings: Compound concentration 10.0 uM
[12] = molecular target: 5-hydroxytryptamine receptor 1B (Homo sapiens) (UniProt P28222); settings: Compound concentration 10.0 uM
[13] = tested on: Phosphatidylinositol 4,5-bisphosphate 3-kinase catalytic subunit alpha isoform (Homo sapiens), P42336 [M1043I]; settings: Compound concentration 1000.0 nM
Chain of Phosphatidylinositol 4,5-bisphosphate 3-kinase catalytic subunit alpha isoform (Homo sapiens), P42336 [M1043I] (P42336 whole entry M1043I, canonical isoform): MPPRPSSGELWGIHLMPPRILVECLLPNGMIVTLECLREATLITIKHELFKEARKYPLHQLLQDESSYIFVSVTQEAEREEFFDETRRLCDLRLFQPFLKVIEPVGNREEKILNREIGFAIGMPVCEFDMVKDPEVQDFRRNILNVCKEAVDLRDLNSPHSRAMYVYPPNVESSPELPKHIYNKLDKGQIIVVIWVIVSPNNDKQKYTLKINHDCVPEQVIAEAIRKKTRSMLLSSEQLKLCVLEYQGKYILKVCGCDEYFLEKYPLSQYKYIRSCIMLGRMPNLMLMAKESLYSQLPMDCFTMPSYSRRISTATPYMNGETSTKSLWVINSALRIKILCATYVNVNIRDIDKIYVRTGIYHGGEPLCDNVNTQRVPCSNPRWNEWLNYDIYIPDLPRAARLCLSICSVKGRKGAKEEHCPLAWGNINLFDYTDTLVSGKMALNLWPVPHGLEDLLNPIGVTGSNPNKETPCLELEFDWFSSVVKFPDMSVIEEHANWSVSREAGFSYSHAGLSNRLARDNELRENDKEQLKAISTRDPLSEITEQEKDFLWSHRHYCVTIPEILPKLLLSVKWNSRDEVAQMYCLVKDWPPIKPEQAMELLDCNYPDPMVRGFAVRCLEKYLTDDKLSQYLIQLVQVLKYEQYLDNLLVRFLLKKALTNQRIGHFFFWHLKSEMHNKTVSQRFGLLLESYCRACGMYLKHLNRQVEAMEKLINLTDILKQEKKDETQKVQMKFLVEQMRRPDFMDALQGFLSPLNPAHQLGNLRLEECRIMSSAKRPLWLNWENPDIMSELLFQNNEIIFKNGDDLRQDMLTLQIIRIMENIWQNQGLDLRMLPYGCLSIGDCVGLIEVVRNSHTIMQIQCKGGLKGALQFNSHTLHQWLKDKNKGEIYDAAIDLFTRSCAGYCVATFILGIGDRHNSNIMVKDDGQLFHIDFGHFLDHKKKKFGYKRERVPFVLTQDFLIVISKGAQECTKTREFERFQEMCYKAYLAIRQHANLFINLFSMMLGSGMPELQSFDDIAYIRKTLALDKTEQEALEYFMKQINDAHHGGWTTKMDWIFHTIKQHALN

[14] = molecular target: Ribosomal protein S6 kinase alpha-6 (Homo sapiens) (UniProt Q9UK32); settings: Compound concentration 1000.0 nM
[15] = molecular target: Mitogen-activated protein kinase kinase kinase 6 (Homo sapiens) (UniProt O95382); settings: Compound concentration 1000.0 nM
[16] = molecular target: Serine/threonine-protein kinase PknB (Mycobacterium tuberculosis) (UniProt P9WI81); settings: Compound concentration 1000.0 nM
[17] = molecular target: Receptor tyrosine-protein kinase erbB-4 (Homo sapiens) (UniProt Q15303); settings: Compound concentration 1000.0 nM
[18] = molecular target: Serine/threonine-protein kinase 38 (Homo sapiens) (UniProt Q15208); settings: Compound concentration 1000.0 nM
[19] = molecular target: Tyrosine-protein kinase JAK1 (Homo sapiens) (UniProt P23458); settings: Compound concentration 1000.0 nM
[20] = molecular target: Hepatocyte growth factor receptor (Homo sapiens) (UniProt P08581); settings: Compound concentration 1000.0 nM
[21] = molecular target: Tyrosine-protein kinase receptor Tie-1 (Homo sapiens) (UniProt P35590); settings: Compound concentration 1000.0 nM
Chain of Tyrosine-protein kinase receptor Tie-1 (Homo sapiens) (P35590 whole entry, canonical isoform): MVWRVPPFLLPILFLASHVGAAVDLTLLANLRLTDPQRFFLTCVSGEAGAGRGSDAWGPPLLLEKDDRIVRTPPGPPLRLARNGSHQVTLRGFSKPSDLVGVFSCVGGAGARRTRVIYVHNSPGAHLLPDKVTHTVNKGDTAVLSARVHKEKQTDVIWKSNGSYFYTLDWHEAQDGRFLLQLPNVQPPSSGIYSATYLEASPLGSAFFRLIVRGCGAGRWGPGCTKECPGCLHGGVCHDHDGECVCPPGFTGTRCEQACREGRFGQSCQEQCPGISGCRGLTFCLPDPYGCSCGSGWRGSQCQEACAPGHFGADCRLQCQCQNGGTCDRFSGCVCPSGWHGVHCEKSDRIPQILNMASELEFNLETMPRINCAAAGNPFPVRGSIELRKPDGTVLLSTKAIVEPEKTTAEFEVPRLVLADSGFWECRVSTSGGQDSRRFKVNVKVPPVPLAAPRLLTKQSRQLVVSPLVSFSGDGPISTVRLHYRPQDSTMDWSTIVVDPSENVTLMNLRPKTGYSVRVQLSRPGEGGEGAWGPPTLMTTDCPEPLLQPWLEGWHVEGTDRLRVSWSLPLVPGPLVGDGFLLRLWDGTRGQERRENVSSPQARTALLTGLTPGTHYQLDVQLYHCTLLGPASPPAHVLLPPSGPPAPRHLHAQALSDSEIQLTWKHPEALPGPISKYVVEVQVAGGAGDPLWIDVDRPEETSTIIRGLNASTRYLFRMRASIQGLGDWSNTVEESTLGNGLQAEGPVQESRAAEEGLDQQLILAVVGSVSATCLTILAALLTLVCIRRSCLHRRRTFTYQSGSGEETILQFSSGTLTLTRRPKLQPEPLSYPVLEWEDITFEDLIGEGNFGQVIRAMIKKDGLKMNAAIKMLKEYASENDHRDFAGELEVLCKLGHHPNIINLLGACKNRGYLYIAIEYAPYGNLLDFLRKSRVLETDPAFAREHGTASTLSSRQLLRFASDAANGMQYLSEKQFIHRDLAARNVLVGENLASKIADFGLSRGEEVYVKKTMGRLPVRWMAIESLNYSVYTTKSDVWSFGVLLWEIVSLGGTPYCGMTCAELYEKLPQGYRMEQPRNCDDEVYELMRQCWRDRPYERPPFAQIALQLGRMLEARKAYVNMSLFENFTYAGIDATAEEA

[22] = tested on: Phosphatidylinositol 4,5-bisphosphate 3-kinase catalytic subunit alpha isoform (Homo sapiens), P42336 [H1047L]; settings: Compound concentration 1000.0 nM
Chain of Phosphatidylinositol 4,5-bisphosphate 3-kinase catalytic subunit alpha isoform (Homo sapiens), P42336 [H1047L] (P42336 whole entry H1047L, canonical isoform): as the sequence (P42336 whole entry M1043I, canonical isoform) above, with I1043M, H1047L counted along it

[23] = molecular target: Vascular endothelial growth factor receptor 1 (Homo sapiens) (UniProt P17948); settings: Compound concentration 1000.0 nM
[24] = molecular target: Ribosomal protein S6 kinase alpha-1 (Homo sapiens) (UniProt Q15418); settings: Compound concentration 1000.0 nM
[25] = molecular target: Ephrin type-B receptor 1 (Homo sapiens) (UniProt P54762); settings: Compound concentration 1000.0 nM
[26] = molecular target: Serine/threonine-protein kinase MRCK beta (Homo sapiens) (UniProt Q9Y5S2); settings: Compound concentration 1000.0 nM
[27] = molecular target: Serine/threonine-protein kinase Chk2 (Homo sapiens) (UniProt O96017); settings: Compound concentration 1000.0 nM
[28] = molecular target: T1, D(4) dopamine receptor (Homo sapiens) (UniProt P21917); settings: Compound concentration 10.0 uM
T1 sequence (whole entry): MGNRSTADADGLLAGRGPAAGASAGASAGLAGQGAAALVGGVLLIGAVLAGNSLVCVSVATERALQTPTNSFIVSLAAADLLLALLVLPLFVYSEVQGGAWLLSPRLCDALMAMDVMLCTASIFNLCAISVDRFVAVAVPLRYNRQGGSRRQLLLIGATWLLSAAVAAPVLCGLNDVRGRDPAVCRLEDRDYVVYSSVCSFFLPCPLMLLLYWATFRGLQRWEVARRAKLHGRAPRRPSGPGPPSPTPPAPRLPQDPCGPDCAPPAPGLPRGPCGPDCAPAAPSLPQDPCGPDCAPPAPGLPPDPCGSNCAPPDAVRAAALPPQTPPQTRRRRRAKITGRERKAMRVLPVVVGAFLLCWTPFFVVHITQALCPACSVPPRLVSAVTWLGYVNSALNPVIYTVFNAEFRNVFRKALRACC

[29] = molecular target: Macrophage-stimulating protein receptor (Homo sapiens) (UniProt Q04912); settings: Compound concentration 1000.0 nM
[30] = tested on: Tyrosine-protein kinase ABL1 (Homo sapiens), P00519 [T315I]; settings: Compound concentration 1000.0 nM
[31] = molecular target: SRSF protein kinase 3 (Homo sapiens) (UniProt Q9UPE1); settings: Compound concentration 1000.0 nM
[32] = tested on: Hepatocyte growth factor receptor (Homo sapiens), P08581 [M1250T]; settings: Compound concentration 1000.0 nM
[33] = molecular target: Cyclin-dependent kinase 5 (Homo sapiens) (UniProt Q00535); settings: Compound concentration 1000.0 nM
Chain of Cyclin-dependent kinase 5 (Homo sapiens) (Q00535 whole entry, looked up): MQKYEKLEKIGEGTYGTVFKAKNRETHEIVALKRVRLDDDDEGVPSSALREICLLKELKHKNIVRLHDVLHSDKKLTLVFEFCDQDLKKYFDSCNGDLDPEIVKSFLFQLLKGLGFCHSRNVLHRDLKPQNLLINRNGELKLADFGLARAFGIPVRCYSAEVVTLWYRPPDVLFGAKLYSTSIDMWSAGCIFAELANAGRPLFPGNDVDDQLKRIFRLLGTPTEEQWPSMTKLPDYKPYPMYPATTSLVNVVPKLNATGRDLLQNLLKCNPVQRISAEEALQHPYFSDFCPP

[34] = molecular target: Ephrin type-B receptor 6 (Homo sapiens) (UniProt O15197); settings: Compound concentration 1000.0 nM
[35] = molecular target: RAC-gamma serine/threonine-protein kinase (Homo sapiens) (UniProt Q9Y243); settings: Compound concentration 1000.0 nM
[36] = molecular target: Serine/threonine-protein kinase RIO1 (Homo sapiens) (UniProt Q9BRS2); settings: Compound concentration 1000.0 nM
[37] = molecular target: Ribosomal protein S6 kinase alpha-4 (Homo sapiens) (UniProt O75676); settings: Compound concentration 1000.0 nM
[38] = molecular target: Serine/threonine-protein kinase STK11 (Homo sapiens) (UniProt Q15831); settings: Compound concentration 1000.0 nM
Chain of Serine/threonine-protein kinase STK11 (Homo sapiens) (Q15831 whole entry): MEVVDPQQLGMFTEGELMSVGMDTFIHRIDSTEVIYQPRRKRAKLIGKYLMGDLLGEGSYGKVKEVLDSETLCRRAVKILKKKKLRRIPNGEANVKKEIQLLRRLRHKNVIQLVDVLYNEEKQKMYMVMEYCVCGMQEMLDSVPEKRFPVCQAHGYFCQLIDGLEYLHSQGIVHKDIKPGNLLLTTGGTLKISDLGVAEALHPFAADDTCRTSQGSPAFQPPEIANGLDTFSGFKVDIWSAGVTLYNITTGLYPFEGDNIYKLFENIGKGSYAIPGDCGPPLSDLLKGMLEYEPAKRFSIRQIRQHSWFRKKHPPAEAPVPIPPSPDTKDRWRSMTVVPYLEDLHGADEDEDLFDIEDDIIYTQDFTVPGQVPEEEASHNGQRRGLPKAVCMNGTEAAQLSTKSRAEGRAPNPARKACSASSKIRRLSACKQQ

[39] = molecular target: Serine/threonine-protein kinase Sgk1 (Homo sapiens) (UniProt O00141); settings: Compound concentration 1000.0 nM
Chain of Serine/threonine-protein kinase Sgk1 (Homo sapiens) (O00141 whole entry): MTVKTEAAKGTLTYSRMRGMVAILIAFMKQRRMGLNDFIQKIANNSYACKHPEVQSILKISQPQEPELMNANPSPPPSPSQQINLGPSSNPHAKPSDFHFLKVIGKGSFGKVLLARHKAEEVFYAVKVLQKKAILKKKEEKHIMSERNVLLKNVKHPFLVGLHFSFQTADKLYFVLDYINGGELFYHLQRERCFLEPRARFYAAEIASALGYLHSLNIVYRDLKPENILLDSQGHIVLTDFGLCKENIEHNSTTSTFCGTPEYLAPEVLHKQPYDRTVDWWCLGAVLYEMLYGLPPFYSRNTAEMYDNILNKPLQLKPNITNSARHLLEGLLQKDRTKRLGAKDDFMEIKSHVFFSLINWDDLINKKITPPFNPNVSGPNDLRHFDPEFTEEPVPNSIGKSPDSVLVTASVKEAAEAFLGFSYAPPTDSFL

[40] = molecular target: Platelet-derived growth factor receptor beta (Homo sapiens) (UniProt P09619); settings: Compound concentration 1000.0 nM

CC(=O)N1CCC(c2ccc(C(=O)NC3=NCCN3)cc2C(F)(F)F)CC1 [BI 0054]
inactive: residual activity [1] 87% | residual activity [2] 99% | residual activity [3] 100% | residual activity [4] 100% | residual activity [5] 100% | residual activity [6] 100% | residual activity [7] 100% | residual activity [8] 100% | residual activity [9] 90% | residual activity [10] 97% | inhibition [11] -9.82% | inhibition [12] 37.8% | residual activity [13] 100% | residual activity [14] 98% | residual activity [15] 93% | residual activity [16] 100% | residual activity [17] 100% | residual activity [18] 85% | residual activity [19] 100% | residual activity [20] 100% | residual activity [21] 82% | residual activity [22] 100% | residual activity [23] 100% | residual activity [24] 100% | residual activity [25] 100% | residual activity [26] 100% | residual activity [27] 100% | inhibition [28] -5.64% | residual activity [29] 80% | residual activity [30] 87% | residual activity [31] 100% | residual activity [32] 84% | residual activity [33] 100% | residual activity [34] 100% | residual activity [35] 100% | residual activity [36] 100% | residual activity [37] 81% | residual activity [38] 71% | residual activity [39] 100% | residual activity [40] 95%

CC(=O)N1CCC(c2ccc(C(=O)NC(=N)N)cc2C(F)(F)F)CC1 [BI 9627]
inactive: residual activity [1] 86% | residual activity [2] 100% | residual activity [3] 100% | residual activity [4] 100% | residual activity [5] 100% | residual activity [6] 100% | residual activity [7] 100% | residual activity [8] 80% | residual activity [9] 92% | residual activity [10] 92% | inhibition [11] -8.21% | inhibition [12] 14.6% | residual activity [13] 100% | residual activity [14] 100% | residual activity [15] 86% | residual activity [16] 100% | residual activity [17] 100% | residual activity [18] 96% | residual activity [19] 100% | residual activity [20] 100% | residual activity [21] 100% | residual activity [22] 100% | residual activity [23] 100% | residual activity [24] 100% | residual activity [25] 100% | residual activity [26] 100% | residual activity [27] 100% | inhibition [28] -5.7% | residual activity [29] 97% | residual activity [30] 95% | residual activity [31] 100% | residual activity [32] 100% | residual activity [33] 87% | residual activity [34] 100% | residual activity [35] 100% | residual activity [36] 100% | residual activity [37] 100% | residual activity [38] 73% | residual activity [39] 100% | residual activity [40] 100%
